Experimental data from US20060216342A1, “Micelle delivery system loaded with a pharmaceutical agent” (priority 2003, published 2006).
Values belong to the compound of their own block, whether it stands above or below them.

Experiments:
LLC tumors = assay: Inhibition of LLC tumor growth in mice with different taxol preparations; assay type: in vivo; conditions: ca. 100 μg taxol per injection, two injections, twenty days after first injection, untreated 2.00±0.60 g
Protocol: Inhibition of tumor growth with different taxol preparations. Mice with LLC tumors were injected with different taxol formulations on day 10 post inoculation (ca. 100 μg of taxol per animal per injection). On day 5 after the first administration, the injections were repeated. Twenty days after the first injection, the mice were sacrificed; tumors extracted, rinsed twice with saline, wiped, and weighed. There were five mice in each experimental group.

[1] = Encapsulation of tamoxifen into PEG-PE micelles; assay type: physicochemical; conditions: drug/PEG-PE molar ratio 1:1, after 0.22 μm filtration
Protocol: Tamoxifen dissolved in methanol was added to the solution of PEG-PE in chloroform to obtain the drug/PEG-PE molar ratio of 1:1. Organic solvents were evaporated and micelles were formed by shaking the tamoxifen/PE-PEG film obtained in the presence of an aqueous buffer at 50° C. Free tamoxifen was removed by filtration through 0.22 μm filters. Tamoxifen was quantified using the assay procedure for diethylstilbesterol (United States Pharmacopeal Convention, 2000).

[2] = Micelle size by dynamic light scattering and freeze-fracture electron microscopy; assay type: physicochemical; conditions: PEG-PE micelles with vs without tamoxifen
Protocol: When required, 0.5 ml of a 12 μM solution of 2C5 or 2G4 in borate, pH 9.0 was added to 0.5 ml of pNP-PEG-PE-containing micelles with a PEG-PE concentration of 1.5 mM. The mixture was incubated for 3 h at room temperature (RT) and dialyzed against HBS, using cellulose ester membranes with a cut-off size of 300,000 Da (Spectrum Medical Industries, Rancho Dominguez, Calif.). To assess the quantity of the micelle-bound protein, CF-labeled antibody was used. Protein concentration was measured by associated fluorescence at an excitation wavelength of 490 nm and an emission of 520 nm on a F-2000 spectrofluorimeter (Hitachi, Japan). The micelle size was measured by dynamic light scattering using a N4 Plus Submicron Particle System (Coulter Corporation, Miami, Fla.) at PEG-PE concentration of 2-10 mM.
Freeze-fracture electron microscopy. The sample was quenched using the sandwich technique and liquid nitrogen-cooled propane. A cooling rate of 10,000K/sec avoids ice crystal formation and cryofixation-caused artifacts. The fracturing process was carried out in JEOL JED-9000 freeze-etching equipment (Jeol, Peabody, Mass.) and the exposed fracture planes were shadowed with Pt for 30 sec at an angle of 25-35 degrees followed with carbon for 35 sec (2 kV, 60-70 mA, 1×10^−5 Torr). […]

[3] = Incorporation of porphyrin into PEG-PE micelles; assay type: physicochemical
Protocol: Porphyrin dissolved in methanol was added to a solution of PEG-PE in chloroform to obtain various final ratios of components. Organic solvents were removed under vacuum. Micelles were formed by shaking the PEG-PE/porphyrin film obtained in the presence of an aqueous buffer. Excess of porphyrin not incorporated into the micelles was separated by filtration of the micelle suspension through 0.2 μm filter. Concentration of porphyrin in micellar phase was estimated following the fluorescence at the excitation wavelength of […] and the emission wavelength of 674 nm (F635/674) after 100-200-fold dilution of the samples in methanol.

Compound: CC(=O)O[C@H]1C(=O)[C@@]2(C)[C@H]([C@H](OC(=O)c3ccccc3)[C@]3(O)C[C@H](OC(=O)[C@H](O)[C@@H](NC(=O)c4ccccc4)c4ccccc4)C(C)=C1C3(C)C)[C@]1(OC(C)=O)CO[C@@H]1C[C@@H]2O [free taxol, paclitaxel]
- average weight of excised tumors (LLC tumors): 1.58 ± 0.48 g

- tamoxifen incorporated into PEG-PE micelles [1]: more than 95%
Compound: CC/C(=C(\c1ccccc1)c1ccc(OCCN(C)C)cc1)c1ccccc1 [tamoxifen]
- effect of drug incorporation on micelle size [2]: does not change the size of the micelles significantly

- efficiency of incorporation into micelles ([3]; initial porphyrin/PEG-PE weight ratio of 1/2): about 80%
- efficiency of incorporation into micelles ([3]; initial porphyrin/PEG-PE weight ratio of up to 1/5): ~100%
- drug/PEG-PE in the resultant micelles ([3]; initial weight ratio of 1/2): 2/5
Compound: chlorin e6 trimethyl ester [porphyrin]
